Measurements from patent publication US10570180B2, “Anti-bacterial agents and their use in therapy” (priority 2015, dated 2020).
≈ marks a conversion by molar mass, not a printed value. Ends that are not written are not given here.

Key:
[1] = tested on: Staphylococcus aureus MRSA 1040s; assay: microbe, parasite or virus in culture; assay type: cell-based; details: for MIC of Erythromycin (Relative values): concentration of APIM peptide 15 μg/ml, MRSA 1040s
Method: (§1) ATX-101 was dissolved in Mueller-Hinton broth to 1.25 times of the desired assay concentration. Antibiotics were dissolved in Mueller-Hinton broth and Mueller-Hinton broth with ATX-101 at a concentration of 1.25 times the highest desired assay concentrations. Antibiotics were pharmaceutical grade purchased from Sigma-Aldrich.
(§2) Two-fold serial dilutions of antibiotics were made in Mueller-Hinton with different concentrations of ATX-101, and the solutions were placed in four parallel wells is Nunc 384-well micro plates (30 μl per well in Nunc 242757 microplates). A group of 8 wells with no addition of antibiotics for each ATX-101 concentration was included on each micro plate as a growth reference.
(§3) At the day of analysis, overnight TSB cultures inoculated from freeze stocks (6 ml in 50 ml tube tilted to 45-degrees angle, 200 rpm, 2.5 cm amplitude, 37° C.) were diluted in TSB until the OD800 was 0.10, and further diluted 1:40 in Mueller-Hinton broth. Each well in the 384-well assay plates was inoculated with 7.5 μl of the diluted culture, giving the same dilution of the culture in the assay cultures. The microplates were placed in plastic bags and incubated without shaking at 37° C. The optical density at 600 nm in the microwells was measured after approximately 19 hours of incubation, and the relative growth yield was calculated based on the growth in the reference groups. The MIC value was set to the highest concentration giving less than 30% growth in all 4 parallel wells within the sample groups. The microplates were further incubated for 6 hours, and optical density in the cultures was measured once more for confirmation of the estimated MIC-values.
as §1, with “The APIM peptide was” for “ATX-101 was”, “with APIM” for “with ATX-101”
as §2, with “APIM,” for “ATX-101,”, “in” for “is”, “APIM” for “ATX-101”, “as” for “as a”
as §3, with “inoculated” for “inoculated from”, “OD600” for “OD800”, “culture.” for “culture, giving the same dilution of the culture in the assay cultures.”, “yield in each well” for “yield”
In view of the anti-bacterial effect of ATX-101 on strains of MRSA, the MIC for a variety of APIM variants was determined using Staphylococcus aureus MRSA 1040s. […] A cell penetrating peptide (SEQ ID NO: 337) present in all of the APIM peptides, was used as a negative control.
Next, the effect of APIM peptides on the MIC of antibiotics was determined using Staphylococcus aureus MRSA 1040s.
(§4) The MICS for various APIM peptides were determined for various bacteria, as described above.

[2] = biological target: β-clamp protein from E. coli (Escherichia coli, UniProt P0A988); assay: Microscale thermophoresis (MST); assay type: binding; details: no data could be obtained
Method: Microscale thermophoresis (MST) was used to determine the dissociation constant for various APIM containing peptides.
The β-clamp protein from E. coli was labeled with a fluorescent molecule. Concentration of PCNA was kept constant, whereas dilutions of each APIM containing peptide were prepared (1:1). In a mix of protein and peptide, the signal was recorded in all capillaries with varying concentrations of the unlabeled peptide, and any change of thermophoretic properties was observed as a change in fluorescence intensity.

A. baumanii = assay type: cell-based
Method: as §1, §2, §3, §4

E. faecium TO-12 = assay type: cell-based
Method: as §1, §2, §3, §4

[3] = tested on: Staphylococcus aureus NCTC 6571; assay type: cell-based; details: NCTC 6571
Method: as §1, §2, §3, §4

[4] = tested on: E. faecium CCUG 37832 (TO-3); assay type: cell-based, Enterococcus faecium; details: CCUG 37832
Method: as §1, §2, §3
Accordingly, concentrations of 8 μg/ml and 16 μg/ml of ATX-101 were combined with various antibiotics selected from; 2,4-Diamin, S. methizol, S. methoxa, S. dimetho, Surfaceta, Trimeth, Flumeq, Levoflox, Pruliflox, Metronid and Nitrofur.
as §4

bacteria = assay: MIC of other APIM peptides on bacteria; assay type: cell-based; details: Example 2
E. coli BL21 (ripl) = assay: Overexpression of APIM peptides in E. coli, growth; assay type: cell-based; details: induction with 1 mM IPTG, no cell-penetrating peptide; FIG. 9, 10
Description: In order to verify further that the anti-microbial effect of the APIM peptides arise from the APIM sequence, peptides containing only the APIM sequence (i.e. without a cell-penetrating peptide) were over-expressed in E. coli using the expression vector pET28. The APIM peptide was expressed alone or as part of a fusion protein with EYFP. Expression of EYFP alone was used as a control.
The expression vectors containing the respective peptides were transfected into the bacterial strain E. coli BL21 (ripl). Single colonies, 4-6 of each strain, were inoculated in […] LB media (+Km/Clm) in 96 wells plates, and incubated at 37° C. Overnight cultures were diluted 1:100 and grown for 1 h before induction with 1 mM IPTG (initiating peptide expression). OD was measured every hour.
In order to verify that the extended APIM peptides have an anti-bacterial effect, peptides containing only the “extended” APIM sequence (i.e. without a cell-penetrating peptide) were over-expressed in E. coli using the expression vector pET28, using the method described in Example 7. […] The bacterial strain without a plasmid was used as a further control.

Sequence of β-clamp protein from E. coli (P0A988 whole entry): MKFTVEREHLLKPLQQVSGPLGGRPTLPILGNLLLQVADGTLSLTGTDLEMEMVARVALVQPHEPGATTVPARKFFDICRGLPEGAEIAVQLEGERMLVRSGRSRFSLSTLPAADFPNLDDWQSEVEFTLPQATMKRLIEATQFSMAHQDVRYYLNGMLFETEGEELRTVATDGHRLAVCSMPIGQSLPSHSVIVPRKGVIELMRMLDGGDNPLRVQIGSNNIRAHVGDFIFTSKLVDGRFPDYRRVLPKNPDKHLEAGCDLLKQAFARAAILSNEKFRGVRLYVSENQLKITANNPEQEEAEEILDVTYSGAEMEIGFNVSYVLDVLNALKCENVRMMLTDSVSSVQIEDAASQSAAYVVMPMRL

Compound | MIC (E. faecium TO-12) [µM] | MIC [3] [µM] | MIC of Erythromycin (Relative values) [1] | MIC [4] [µM] | bacterial growth on overexpression of APIM peptide (OD) (E. coli BL21 (ripl)) | other results
N=C(N)NCCC[C@H](NC(=O)[C@H](CCCNC(=N)N)NC(=O)[C@H](CCCNC(=N)N)NC(=O)[C@H](CCCNC(=N)N)NC(=O)[C@H](CCCNC(=N)N)NC(=O)[C@H](CCCNC(=N)N)NC(=O)[C@H](CCCNC(=N)N)NC(=O)[C@H](CCCNC(=N)N)NC(=O)[C@H](CCCNC(=N)N)NC(=O)[C@H](CCCNC(=N)N)NC(=O)[C@@H](N)CCCNC(=N)N)C(=O)O [R11, RRRRRRRRRRR, reference compound] |  |  |  |  |  | MIC ([1]; 1040s): 118 µg/mL (≈ 68 µM); interaction with the β-clamp protein [2]: does not interact with the β-clamp protein
CC[C@H](C)[C@H](NC(=O)[C@H](CCCCN)NC(=O)[C@H](CCCNC(=N)N)NC(=O)[C@H](CCCCN)NC(=O)[C@H](CCCCN)NC(=O)[C@H](CCCCN)NC(=O)[C@H](Cc1c[nH]c2ccccc12)NC(=O)[C@@H]1CCCN1C(=O)[C@@H](NC(=O)[C@H](CC(C)C)NC(=O)[C@H](Cc1c[nH]c2ccccc12)NC(=O)[C@H](CCCNC(=N)N)NC(=O)[C@H](CC(=O)O)NC(=O)[C@@H](N)CCSC)C(C)C)C(=O)N[C@@H](CCCNC(=N)N)C(=O)N[C@@H](CCCNC(=N)N)C(=O)N[C@@H](CCCNC(=N)N)C(=O)N[C@@H](CCCNC(=N)N)C(=O)N[C@@H](CCCNC(=N)N)C(=O)N[C@@H](CCCNC(=N)N)C(=O)N[C@@H](CCCNC(=N)N)C(=O)N[C@@H](CCCNC(=N)N)C(=O)N[C@@H](CCCNC(=N)N)C(=O)N[C@@H](CCCNC(=N)N)C(=O)N[C@@H](CCCNC(=N)N)C(=O)O [SEQ ID NO: 1303] | 25.3 (≈ 91.1 µg/mL) | 37.9 (≈ 137 µg/mL) | 100 | 7.5 (≈ 27 µg/mL) |  | MIC (A. baumanii): 25.3 µM (≈ 91.1 µg/mL)
MDRWAVKWKKKRKIRRRRRRRRRRR [SEQ ID NO: 1299] | 25.3 | 37.9 | 200 | 7.5 |  | MIC compared with ATX-101 (bacteria): lower MICs than ATX-101
MDRWSVKWKKKRKIRRRRRRRRRRR [SEQ ID NO: 1298] | 37.9 | 37.9 | 100 | 7.5 |  | MIC compared with ATX-101 (bacteria): lower MICs than ATX-101
RFSLK (APIM variant) [SEQ ID NO: 1291] |  |  |  |  | particularly effective | 
RWLTK (APIM variant) [SEQ ID NO: 1293] |  |  |  |  | particularly effective | 
RWLVK (APIM) [SEQ ID NO: 1290] |  |  |  |  | inhibits bacterial growth | 
RWLVP (APIM variant) [SEQ ID NO: 1292] |  |  |  |  | particularly effective | 
